In publication PMC8284440, “Toward New Transmission-Blocking Combination Therapies: Pharmacokinetics of 10-Amino-Artemisinins and 11-Aza-Artemisinin and Comparison with Dihydroartemisinin and Artemether” (Antimicrobial Agents and Chemotherapy, 2021):
Values after ≈ are worked out from the molar mass of the structure shown. Read-outs that look alike come from different tables or passages of the source. Values belong to the compound of their own block, whether it stands above or below them.

Columns and labels:
[1] = Kinetic solubility; assay type: physicochemical
Experimental: For kinetic solubility assays, three solutions with differing pH were prepared. Phosphate-buffered saline (PBS) was prepared by mixing KH2PO4 (0.2 g), K2HPO4 (0.115 g), NaCl (0.8 g), and KCl (0.2 mg) in purified water (100 ml). The pH was measured and adjusted using 0.05 M HCl or 0.05 M NaOH to pH 7.4. The pH 2 solution was prepared by adding HCl (37%, 83 μl) to purified water (50 ml). FaSSIF buffer at pH 6.5 was prepared by adding KH2PO4 (2.042 g) and KCl (3.728 g) to purified water (450 ml) and adjusting the pH to 6.5 using 0.05 M HCl or 0.05 M NaOH as required. Simulated intestinal fluid (SIF) (Biorelevant, London, UK) powder (5.6 mg) was then added to the buffer (25 ml) to complete the process.
(i) Kinetic solubility. Duplicate stock solutions of each compound at a concentration of 10 mM in DMSO were prepared in a 96-well plate in PBS at pH 7.4, water at pH 2, and FaSSIF buffer at pH 6.5 to a final concentration of 200 μM ([68]). These three solutions mimic the pH and conditions of the gastrointestinal tract. As the FaSSIF buffer mimics the fasted state in vitro, solubility in this buffer provides a guide as to whether compounds should be dosed with or without meals ([87]). Calibration standards were prepared for each compound in DMSO at 11, 100, and 220 μM. These standards were used to produce a calibration curve required for calculation of the concentration of each compound in the test solutions. […] Plates were agitated on a plate shaker for 2 h (500 rpm, 22°C). Sample analysis was carried out by liquid chromatography-tandem mass spectrometry (LC-MS/MS) analysis as described in “Sample analysis” below. Peak areas were integrated, and calibration curves were constructed and used to calculate the concentrations of each compound in the three buffers.
(§1) Sample extraction. […] The organic layer was then transferred and evaporated under a gentle stream of nitrogen at room temperature for 30 min. The dried samples were reconstituted in mobile phase, and a 5 μl sample was injected for LC-MS/MS analysis. The only exception was the arylurea 10, for which no liquid-liquid extraction was conducted; instead, the 200 μl acetonitrile solution was evaporated under a gentle stream of nitrogen at room temperature. The dried sample was reconstituted in the mobile phase, and a 5 μl sample was injected for LC-MS/MS analysis. The plasma samples for each compound from the in vivo studies were extracted by mixing 350 μl ethyl acetate with 15 μl of plasma sample and 35 μl of universal buffer containing internal standard at pH 8. The samples were vortexed for 1 min and centrifuged for 5 min, and the organic layer was then transferred and evaporated under a gentle stream of nitrogen at room temperature for 30 min. The dried samples were each reconstituted in the mobile phase, and a 5 μl sample was injected for LC-MS/MS analysis.
(§2) LC-MS/MS analysis. For all the artemisinins except the arylurea 10, gradient chromatography was performed on a Phenomenex (Torrance, CA, USA) Luna PFP(2) analytical column (100 Å, 5 μm, 2 by 50 mm) and an AB Sciex API 5500 mass spectrometer which was operated at unit resolution in the multiple reaction monitoring (MRM) mode. The HPLC method used was a gradient method with 5 mM ammonium acetate and 0.1% acetic acid in water as the aqueous phase and a mixture of acetonitrile and methanol (1:1 vol/vol) containing 5% of the aqueous phase as the organic phase ([89]). The arylurea 10 was analyzed using a Phenomenex Gemini NX-C18 (5 μm, 2.1 mm by 50 mm) column with an AB Sciex 3200 QTRAP mass spectrometer operated at unit resolution in the MRM mode. The HPLC method used was a gradient method with 5 mM ammonium acetate and 0.1% acetic acid in water as the aqueous phase and a mixture of acetonitrile and methanol (1:1 vol/vol). The transitions of the molecular ions were monitored, as listed in Table S8 in the supporting information. The calibration range was between 0.002 μg/ml and 6.250 μg/ml.

[2] = Metabolic stability in rat liver microsomes; assay type: in vitro ADME; set-up: half-life / CLint scaled: dose or concentration left out as unconfirmed; details: for CLint scaled: calculated, read-out: Intrinsic liver clearance rate CLint Rat; for half-life: read-out: Microsomal half-life t1/2 Rat
Experimental: (ii) Metabolic stability in liver microsomes. The metabolic stability assay was performed in duplicate using 96-deepwell plates. Each compound (0.4 mM) was incubated individually in mouse, rat, and pooled human liver microsomes (0.4 mg/ml) at 37°C in the presence and absence of the cofactor NADPH (1 mM). An aliquot was taken at 0, 5, 10, 30, and 60 min, and the reaction was quenched by adding 300 μl of ice-cold acetonitrile containing the internal standard carbamazepine (0.0236 μg/ml) ([88]). The test compounds in the supernatant were analyzed by means of LC-MS/MS as described in “Sample analysis” below. The normalized data for each sample were used to calculate the in vitro half-life, intrinsic clearance rate, and hepatic extraction ratio from the results of this assay using the following equations ([88]).Equation 1. Normalized area. (1) Normalized area=(Peak area of sample at time point/Peak area of internal standard) Equation 2. Percent parent remaining. (2) % Parent=Normalized peak area of sample at time point/Normalized peak area of sample at t=0×100 Equation 3. Calculated t1/2. (3) t1/2=−0.693/λ where λ is the slope of the ln (% parent remaining) versus time curve of the compound.Equation 4. CLint. (4) CLint=[0.693/t1/2(min)]×[Volume of incubation (μl)/Microsomal protein (μg)] Equation 5. Hepatic extraction ratio. (5) EH=fu×CLint/QH + fu×CLint
as §1
as §2, with “μg/ml. Data acquisition and evaluation were performed using Analyst 1.6.2 software (Applied Biosystems, Foster City, CA, USA). The formation of the putative metabolite DHA from the amino-artemisinins and the metabolite M1 of artemisone were evaluated in these mice PK studies; the MRM transitions of DHA and M1 (Table S8) were thus included in the LC-MS/MS assays.” for “μg/ml.”

[3] = FaSSIF buffer, 22 °C, pH 6.5, fassif, kinetic from dmso stock, read-out: Solubility FaSSIF pH 6.5
[4] = PBS, 22 °C, pH 7.4, aqueous buffer, kinetic from dmso stock, read-out: Solubility pH 7.4
[5] = pH 2 solution (HCl in water), 22 °C, pH 2, kinetic from dmso stock, read-out: Solubility pH 2

SMILES: C[C@@H]1CC[C@H]2[C@@H](C)C(=O)N[C@@H]3O[C@@]4(C)CC[C@@H]1[C@]32OO4 [11-Aza-artemisinin 11, 11-aza-artemisinin]
solubility at 2 h [1, 3]: > 150 µM | solubility at 2 h [1, 4]: 144 µM (≈ 40.6 µg/mL) | solubility at 2 h ([1]; pH 2, FaSSIF pH 6.5 and pH 7.4 together, read-out: Solubility in the three aqueous solutions): > 144 µM | solubility at 2 h [1, 5]: > 150 µM | Hepatic extraction ratio EH Rat [2]: 0.1 | CLint scaled [2]: 9 mL/min/kg | half-life [2]: > 150 min

SMILES: CO[C@H]1O[C@@H]2O[C@@]3(C)CC[C@H]4[C@H](C)CC[C@@H]([C@H]1C)[C@@]24OO3 [Artemether 3, artemether]
Hepatic extraction ratio EH Rat [2]: 0.9 | CLint scaled [2]: 988 mL/min/kg | half-life [2]: < 10 min

SMILES: C[C@H]1[C@H](N2CCSCC2)O[C@@H]2O[C@@]3(C)CC[C@H]4[C@H](C)CC[C@@H]1[C@@]24OO3 [Artemiside 5, artemiside]
solubility at 2 h [1, 3]: < 5 µM | solubility at 2 h [1, 4]: < 5 µM | solubility at 2 h [1, 5]: 12.4 µM (≈ 4.58 µg/mL) | Hepatic extraction ratio EH Rat [2]: 1.0 | CLint scaled [2]: 1390 mL/min/kg | half-life [2]: < 10 min

SMILES: C[C@H]1[C@H](N2CCS(=O)(=O)CC2)O[C@@H]2O[C@@]3(C)CC[C@H]4[C@H](C)CC[C@@H]1[C@@]24OO3 [Artemisone 6, artemisone]
solubility at 2 h [1, 3]: 74.4 µM (≈ 29.9 µg/mL) | solubility at 2 h [1, 4]: 120 µM (≈ 48.3 µg/mL) | solubility at 2 h [1, 5]: 73.7 µM (≈ 29.6 µg/mL) | Hepatic extraction ratio EH Rat [2]: 0.9 | CLint scaled [2]: 342 mL/min/kg | half-life [2]: < 10 min

SMILES: C[C@H]1[C@H](N2CCN(C(=O)Nc3ccc(F)cc3)CC2)O[C@@H]2O[C@@]3(C)CC[C@H]4[C@H](C)CC[C@@H]1[C@@]24OO3 [Arylurea 10]
solubility at 2 h [1, 3]: 24 µM (≈ 11.8 µg/mL) | solubility at 2 h [1, 4]: 27 µM (≈ 13.2 µg/mL) | solubility at 2 h [1, 5]: 10 µM (≈ 4.9 µg/mL)

SMILES: C[C@H]1[C@@H](O)O[C@@H]2O[C@@]3(C)CC[C@H]4[C@H](C)CC[C@@H]1[C@@]24OO3 [DHA 2, dihydroartemisinin]
Hepatic extraction ratio EH Rat [2]: 0.4 | CLint scaled [2]: 34.7 mL/min/kg | half-life [2]: 90 min

solubility at 2 h [1, 3]: 57.6 µM (≈ 23 µg/mL) | solubility at 2 h [1, 4]: 74.5 µM (≈ 29.8 µg/mL) | solubility at 2 h [1, 5]: > 150 µM | Hepatic extraction ratio EH Rat [2]: 0.7 | CLint scaled [2]: 108 mL/min/kg | half-life [2]: 28.8 min
SMILES: C[C@H]1[C@H](N2C=CS(=O)(=O)CC2)O[C@@H]2O[C@@]3(C)CC[C@H]4[C@H](C)CC[C@@H]1[C@@]24OO3 [M1 12]

SMILES: C[C@H]1[C@H](NS(N)(=O)=O)O[C@@H]2O[C@@]3(C)CC[C@H]4[C@H](C)CC[C@@H]1[C@@]24OO3 [Sulfamide 7]
solubility at 2 h [1, 3]: < 5 µM | solubility at 2 h [1, 4]: 11.5 µM (≈ 4.17 µg/mL) | solubility at 2 h [1, 5]: > 150 µM | Hepatic extraction ratio EH Rat [2]: 0.4 | CLint scaled [2]: 32.9 mL/min/kg | half-life [2]: 94.9 min
